Data taken from PubChem BioAssay (NCI).
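Values below derive from 48-hour exposures of cells grown in 96-well plates, with endpoints linearly interpolated between the two concentrations bracketing the appropriate inhibition level. Here, GI50 denotes the concentration required for 50% inhibition of growth. At the TGI there is no net growth.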

Columns and labels:
Assay in all cases: DTP human tumour cell line panel, 48 h
[1] = tested on: HOP-62 NSCLC
[2] = tested on: A498 renal
[3] = tested on: SR leukemia
[4] = tested on: NCI/ADR-RES ovarian
[5] = tested on: NCI-H226 lung

| Structure (SMILES) | TGI [1] [µM] | TGI [2] [µM] | TGI [3] [µM] | TGI [4] [µM] | TGI [5] [µM] | GI50 [1] [µM] |
| --- | --- | --- | --- | --- | --- | --- |
| COc1cc(C2SCC(=O)N2c2ccc(Cl)cc2)cc(I)c1O (stereo not drawn) | > 100 | > 23.2 | > 100 | > 100 | > 100 | – |
| COc1ccc(CCc2ccc(O)c(C(=O)O)c2)cc1OC | > 100 | – | > 100 | > 100 | > 100 | – |
| O=C(N/N=C\c1ccc([N+](=O)[O-])cc1)Nc1cccc2ccccc12 | 22.5 | 40.9 | > 100 | > 100 | 61 | – |
| O=C(N/N=C\c1ccc([N+](=O)[O-])cc1)c1ccccc1Nc1ccccc1C(=O)N/N=C/c1ccc([N+](=O)[O-])cc1 | > 100 | > 100 | > 100 | > 100 | > 100 | – |
| O=C(NCCCCNCCCNC(=O)c1cc(-c2ccccc2)nc2ccccc12)c1cc(-c2ccccc2)nc2ccccc12 | 3.02 | – | 6.09 | 5.09 | 3.26 | – |
| COc1ccc(Nc2nc(N)c(C(=O)c3ccccc3)s2)cc1 | > 100 | > 72.5 | 14.5 | – | 29.5 | – |
| CN(C)CCNC1=CC(=O)c2c(O)ccc(O)c2C1=O | 30.3 | 28 | – | 7.78 | 39.8 | – |
| CC(=O)O[C@H]1CC[C@@]2(C)C(=CC[C@@H]3[C@@H]2CC[C@]2(C)c4c(cc(C#N)c(=N)n4C(C)=O)C[C@@H]32)C1 | 49.4 | 88.7 | 61.2 | 39.6 | 72.8 | – |
| O=C(CN1CCOCC1)CC(O)(C(F)(F)F)C(F)(F)F | – | > 100 | > 100 | > 100 | > 100 | – |
| COc1ccc(C2SCC(=O)N2NC(=O)C(C)Oc2ccccc2Cl)cc1 (stereo not drawn) | – | 92.2 | 58.1 | > 100 | > 100 | – |
| Cc1ccc(Nc2sc(C)cc2C#N)c([N+](=O)[O-])c1 | > 100 | > 100 | > 100 | > 100 | > 100 | – |
| O=c1c(O)c(-c2cc(O)c(O)cc2O)oc2cc(O)c(C3OC(CO)C(O)C(O)C3O)c(O)c12 (stereo not drawn) | > 100 | > 100 | > 100 | > 100 | > 100 | – |
| N#C[C@@]12CCCC(=O)[C@@H]1[C@H]1CCC[C@H]12 | 30.8 | 31.5 | 59.5 | 59.4 | 47.6 | – |
| CN[C@@H](C)[C@H](OP(=O)(O)OC1[C@@H](O)[C@H](O)C(O)[C@H](O)[C@@H]1O)c1ccccc1 (stereo partly drawn) | > 100 | > 100 | – | > 100 | > 100 | – |
| Cc1ccc(Nc2nc(=O)[nH]c(=O)[nH]2)cc1N=[N+]=[N-] | > 100 | > 100 | > 100 | > 100 | > 100 | – |
| O=C1CCCCC[C@]12SC[C@H]1CON=C12 | – | 44.7 | > 100 | 83.4 | > 100 | – |
| C=Cc1cc2c(cc1O)CC[C@@H]1[C@@H]2CC[C@]2(C)[C@@H](O)CC[C@@H]12 | 19.8 | 39.1 | 8.4 | 5.3 | 30.7 | 5.04 |

| Structure (SMILES) | TGI [1] [µM] | TGI [2] [µM] | TGI [3] [µM] | TGI [4] [µM] | TGI [5] [µM] | GI50 [1] [µM] |
| --- | --- | --- | --- | --- | --- | --- |
| Cc1ccc2cccc3c2c1CC1(C3=O)S(=O)(=O)OCCOS1(=O)=O | > 100 | > 100 | – | > 100 | > 100 | – |
| O=C(CCc1ccccc1CO)NCCc1ccccc1 | > 100 | > 100 | > 100 | > 100 | > 100 | – |
| CCn1c(-c2ccc(C)cc2)cs/c1=N\C(P(=O)(O)O)P(=O)(O)O | > 100 | > 100 | > 100 | > 100 | > 100 | – |
| CC(C)CC1[C@@H](OCc2ccccc2)COS(=O)(=O)N1Cc1ccccc1 (stereo partly drawn) | > 100 | > 100 | – | > 100 | > 100 | – |
| CC1=C(C(=O)Nc2ccccc2)C(c2ccc(C)o2)C(C#N)=C(SCc2ccccc2)N1 (stereo not drawn) | > 100 | > 100 | > 68.6 | > 100 | > 100 | – |
| O=CC1OC(=O)c2cc(O)c(O)c(O)c2-c2c(cc(O)c(O)c2O)C(=O)OC1C(O)C(O)CO (stereo not drawn) | > 100 | > 100 | 51.3 | > 100 | > 100 | – |
| Nc1nc(N)c2nnn(C[C@H]3CC[C@@H](CO)C3)c2n1 | > 100 | > 100 | > 100 | > 100 | > 100 | – |
| O=C1OC(C2OC(=O)c3cc(O)c(O)c(O)c3-c3c(O)c(O)c4oc(=O)c5c(c(O)c(O)c6oc(=O)c3c4c65)-c3c(cc(O)c(O)c3O)C(=O)OCC2O)C2OC(=O)c3c(c(O)c(O)c(O)c3[C@H]2O)-c2c1cc(O)c(O)c2O (stereo partly drawn) | > 100 | > 100 | 43.4 | 73.5 | 44.2 | – |
| COc1ccc(-n2c3c(c4c(CN(C)C)c(O)ccc42)C(=O)c2ccccc2C3=O)cc1 | 4.72 | 8.47 | 6.84 | 26.3 | – | – |
| COc1cc(/C=C/C(=O)N[C@@H]2C(=O)N3[C@@H]2SC(C)(C)[C@@H]3C(=O)O)cc(OC)c1OC | – | > 100 | – | > 100 | > 100 | – |
| COC(=O)c1ccc(CCc2cc(O)c(Br)cc2O)cc1 | 32.2 | 40.7 | 14.4 | 43.2 | 55.1 | – |
| O=c1[nH]c(Nc2cccc(Br)c2)nc2nc[nH]c12 | – | – | > 100 | > 100 | > 100 | – |
| CSc1nc(O)c(/C=C2\C=Nc3ccccc32)[nH]1 | > 100 | > 100 | > 100 | > 100 | > 100 | – |
| O=C(OCC1CCCN2CCCCC12)c1ccncc1 (stereo not drawn) | > 100 | > 100 | > 100 | > 100 | > 100 | – |
| Cc1cc(O)c(/C=N/c2nc(-c3cccc([N+](=O)[O-])c3)cs2)c(=O)o1 | > 100 | – | – | > 100 | > 100 | – |
| CCOC(=O)COc1c(OC)cc(C2C3=C(COC3=O)Oc3cc4c(cc32)OCO4)cc1OC (stereo not drawn) | > 100 | – | 27.1 | > 37.3 | > 100 | – |
